According to patent US8067615B2, “Sulphonylpyrroles” (4SC AG, priority 2004, dated 2011):
pEC50, pIC50: −log10 of the molar value.

Columns and labels:
[1] = system: histone H3K23 hyperacetylation in HeLa cervical carcinoma cells; experiment: Cellular histone H3 hyperacetylation assay; type: cell-based; conditions: Homo sapiens, 24 h with compound, read-out: Induction of histone H3K23 hyperacetylation EC50
Description: To assess the cellular efficacy of an histone deacetylase inhibitor in vitro, an assay was set up in black clear-bottom 96-well plates and optimized for use on the Cellomics “ArrayScan II” platform for a quantitative calculation of […] acetylation. The protocol uses a polyclonal rabbit antibody, specifically binding to acetylated lysine 23 of human histone H3 on fixed cells with an Alexa Fluor 488 labeled goat anti rabbit-IgG used for counterstaining (Braunger et al. AACR annual conference 2003, Abstract 4556). 5×10^3 HeLa cervical carcinoma cells/well (ATCC CCL-2) in 200 μl Dulbecco's modified Eagle's medium (DMEM) containing 10% fetal calf serum were seeded at day 1 in Packard view plates and incubated for 24 h under standard cell culture conditions. On day 2, 2 μl test compound (100× final concentration) was added and incubation continued for further 24 h. On day 3, the culture medium was discarded and attached cells fixed for 15 min at room temperature by addition of 100 μl fixation buffer (3.7% v:v formaldehyde in phosphate buffered saline/PBS). After discarding the fixation buffer and one wash with PBS, cells were permeabilized at room temperature by addition of 100 μl/well permeabilization buffer (30.8 mM NaCl, 0.54 mM Na2HPO4, 0.31 mM KH2PO4, 5% v:v Triton X-100) for 15 min at room temperature. After discarding the permeabilization buffer and addition of 100 μl/well blocking solution (PBS with 0.05% v:v Tween 20 and 5% w:v milk powder) for 30 min at room temperature, the 1st antibody (anti-K23 histone H3 antibody, Cell Signaling No. 9674) in blocking solution (50 μl/well) was added. After incubation for 1 h at 37° C., the wells were washed 5 times for 5 min at room temperature with wash buffer (PBS with 0.05% v:v Tween 20) before addition of the 2nd antibody (goat-anti-rabbit Alexa Fluor 488; MoBiTec No. A-11008) in blocking solution (50 μl/well). After further incubation for 30 min at 37° C., wells were washed 5 times for 5 min at RT with 100 μl wash buffer at room temperature. Finally, 100 μl/well PBS were added and image analysis performed on the Cellomics “ArrayScan II” platform. For calculation of EC50 values, the nuclear fluorescence in cells treated with and without a reference HDAC inhibitor like SAHA or NVP-LBH-589 were taken as a positive and negative control, respectively. For EC50 determination, the percentage of positive cells was determined and EC50 calculation done from concentration-effect curves by means of non-linear regression.

[2] = system: HeLa cervical carcinoma cells; experiment: Cellular cytotoxicity assay (Alamar Blue / Resazurin); type: cell-based; conditions: Homo sapiens, 48 hours incubation
Procedure: The anti-proliferative activity of the histone deacetylase inhibitory compounds as described herein, was evaluated with the HeLa cervical carcinoma cell line (ATCC CCL2) using the Alamar Blue (Resazurin) cell viability assay (O'Brien et al. Eur J Biochem 267, 5421-5426, 2000). Resazurin is reduced to the fluorescent resorufin by cellular dehydrogenase activity, correlating with viable, proliferating cells. Test compounds were dissolved as 10 mM solutions in dimethylsulfoxide (DMSO) and subsequently diluted in semi-logarithmic steps. HeLa cells were seeded into 96 well flat bottom plates at a density of 3000 cells per well in a volume of […] per well. 24 hours after seeding 1 μl each of the compound dilutions were added into each well of the 96 Well plate. Each compound dilution was tested as quadruplicates. Wells containing untreated control cells were filled with 200 μl DMEM medium containing 0.5% v:v DMSO. The cells were then incubated with the substances for 48 hours at 37° C. in a humidified atmosphere containing 5% carbon dioxide. To determine the viability of the cells, 20 μl of an Resazurin solution (Sigma; 90 mg/l) were added. After 4 hours incubation at 37° C. the fluorescence was measured at an […] of 544 nm and an emission of 590 nm. For the calculation of the cell viability the emission value from untreated cells was set as 100% viability and the emission rates of treated cells were set in relation to the values of untreated cells. Viabilities were expressed as % values. The corresponding IC50 values of the compounds for cytotoxic activity are determined from the concentration-effect curves by means of non-linear regression.

| Structure (SMILES) | pEC50 [1] | melting point [°C] | pIC50 [2] |
| --- | --- | --- | --- |
| Cc1ccc(S(=O)(=O)n2ccc(C=CC(=O)NO)c2)cc1 [Compound 1, (E)-N-Hydroxy-3-[1-(toluene-4-sulfonyl)-1-H-pyrrol-3-yl]-acrylamide] | 4.29 to 5.67 | – | 4.67 to 6.10 |
| CN(C)c1ccc(S(=O)(=O)n2ccc(C=CC(=O)NO)c2)cc1 [Compound 4, (E)-3-[1-(4-Dimethylamino-benzenesulfonyl)-1H-1-pyrrol-3-yl]-N-hydroxy-acrylamide] | 4.29 to 5.67 | – | 4.67 to 6.10 |
| CN(CCc1cc2ccccc2[nH]1)Cc1ccc(S(=O)(=O)n2ccc(/C=C/C(=O)NO)c2)cc1 [Compound 9, (E)-N-Hydroxy-3-(1-[4-(([2-(1H-indol-2-yl)-ethyl]-methyl-amino)-methyl)-benzenesulfonyl]-1H-pyrrol-3-yl)-acrylamide] | 4.29 to 5.67 | – | 5.30 to 7.15 |
| O=C(/C=C/c1ccn(S(=O)(=O)c2ccc(CNCc3cccnc3)cc2)c1)NO [Compound 11, (E)-N-Hydroxy-3-[1-(4-{[(pyridin-3-ylmethyl)-amino]-methyl}-benzenesulfonyl)-1H-pyrrol-3-yl]-acrylamide] | – | – | 5.30 to 7.15 |
| O=C(/C=C/c1ccn(S(=O)(=O)c2ccc(CNCc3c[nH]c4ccccc34)cc2)c1)NO [Compound 12, (E)-N-Hydroxy-3-[1-(4-{[(1H-indol-3-ylmethyl)-amino]-methyl}-benzenesulfonyl)-1H-pyrrol-3-yl]-acrylamide] | – | – | 5.30 to 7.15 |
| O=C(/C=C/c1ccn(S(=O)(=O)c2ccc(CNCc3ccccc3)cc2)c1)NO [Compound 13, (E)-3-{1-[4-(Benzylamino-methyl)-benzenesulfonyl]-1H-pyrrol-3-yl}-N-hydroxy-acrylamide] | – | – | 5.30 to 7.15 |
| CC(C)CNCc1ccc(S(=O)(=O)n2ccc(/C=C/C(=O)NO)c2)cc1 [Compound 14, (E)-N-Hydroxy-3-{1-[4-(isobutylamino-methyl)-benzenesulfonyl]-1H-pyrrol-3-yl}-acrylamide] | – | – | 5.30 to 7.15 |
| O=C(/C=C/c1ccn(S(=O)(=O)c2ccc(CNCc3ccc4[nH]ccc4c3)cc2)c1)NO [Compound 15, (E)-N-Hydroxy-3-[1-(4-{[(1H-indol-5-ylmethyl)-amino]-methyl}-benzenesulfonyl)-1H-pyrrol-3-yl]-acrylamide] | – | – | 5.30 to 7.15 |
| O=C(/C=C/c1ccn(S(=O)(=O)c2ccc(CNCc3ccncc3)cc2)c1)NO [Compound 16, (E)-N-Hydroxy-3-[1-(4-{[(pyridin-4-ylmethyl)-amino]-methyl}-benzenesulfonyl)-1H-pyrrol-3-yl]-acrylamide] | – | – | 5.30 to 7.15 |
| NCc1ccc(S(=O)(=O)n2ccc(/C=C/C(=O)NO)c2)cc1 [Compound 17, (E)-3-[1-(4-Aminomethyl-benzenesulfonyl)-1H-pyrrol-3-yl]-N-hydroxy-acrylamide] | – | 227 to 228.6 | 5.30 to 7.15 |
| Nc1ccccc1NC(=O)/C=C/c1ccn(S(=O)(=O)c2ccc(-c3cccnc3)cc2)c1 [Compound 21, (E)-N-(2-Amino-phenyl)-3-[1-(4-pyridin-3-yl-benzenesulfonyl)-1H-pyrrol-3-yl]-acrylamide] | – | 199.7 to 202.3 | 5.30 to 7.15 |
| Nc1ccccc1NC(=O)C=Cc1ccn(S(=O)(=O)c2ccc(-c3cn[nH]c3)cc2)c1 [Compound 22, (E)-N-(2-Amino-phenyl)-3-{1-[4-(1H-1-pyrazol-4-yl)-benzenesulfonyl]-1H-pyrrol-3-yl}-acrylamide] | – | 232.3 to 240.9 | 5.30 to 7.15 |
| O=C(/C=C/c1ccn(S(=O)(=O)c2ccc(-c3ccccn3)s2)c1)NO [Compound 24, (E)-N-Hydroxy-3-[1-(5-pyridin-2-yl-thiophene-2-sulfonyl)-1H-pyrrol-3-yl]-acrylamide] | – | – | 5.30 to 7.15 |
| Nc1ccccc1NC(=O)/C=C/c1ccn(S(=O)(=O)c2ccc(-c3ccccn3)s2)c1 [Compound 26, (E)-N-(2-Amino-phenyl)-3-[1-(5-pyridin-2-yl-thiophene-2-sulfonyl)-1H-pyrrol-3-yl]-acrylamide] | – | – | 5.30 to 7.15 |
| O=C(/C=C/c1ccn(S(=O)(=O)c2ccc(CN3CCOCC3)cc2)c1)NO [Compound 27, (E)-N-Hydroxy-3-[1-(4-morpholin-4-ylmethyl-benzenesulfonyl)-1H-pyrrol-3-yl]acrylamide] | 4.29 to 5.67 | 168 to 170 | 5.30 to 7.15 |
| O=C(/C=C/c1ccn(S(=O)(=O)c2ccc(CN(CCO)CCc3cc4ccccc4[nH]3)cc2)c1)NO [Compound 28, (E)-N-Hydroxy-3-{1-[4-({(2-hydroxy-ethyl)-[2-(1H-indol-2-yl)-ethyl]-amino}-methyl)-benzenesulfonyl]-1H-pyrrol-3-yl}-acrylamide] | – | – | 5.30 to 7.15 |

Continued, in another order:

| pEC50 [1] | melting point [°C] | Structure (SMILES) | pIC50 [2] |
| --- | --- | --- | --- |
| 4.29 to 5.67 | – | O=C(/C=C/c1ccn(S(=O)(=O)Cc2ccccc2)c1)NO [Compound 2, N-Hydroxy-3-(1-phenylmethanesulfonyl-1H-1-pyrrol-3-yl)-acrylamide] | 4.67 to 6.10 |
| 4.29 to 5.67 | – | O=C(/C=C/c1ccn(S(=O)(=O)c2ccc(-c3ccccc3)cc2)c1)NO [Compound 3, (E)-3-[1-(Biphenyl-4-sulfonyl)-1H-pyrrol-3-yl]-N-hydroxy-acrylamide] | 4.67 to 6.10 |
| 4.29 to 5.67 | – | Nc1ccccc1NC(=O)C=Cc1ccn(S(=O)(=O)c2ccc(-c3ccccc3)cc2)c1 [Compound 7, (E)-N-(2-Amino-phenyl)-3-[1-(biphenyl-4-sulfonyl)-1H-1-pyrrol-3-yl]-acrylamide] | 4.67 to 6.10 |
| 4.29 to 5.67 | – | CN(C)c1ccc(S(=O)(=O)n2ccc(/C=C/C(=O)Nc3ccccc3N)c2)cc1 [Compound 8, (E)-N-(2-Amino-phenyl)-3-[1-(4-dimethylamino-benzenesulfonyl)-1H-pyrrol-3-yl]-acrylamide] | 4.67 to 6.10 |
| 4.29 to 5.67 | – | CN(C)Cc1ccc(S(=O)(=O)n2ccc(/C=C/C(=O)NO)c2)cc1 [Compound 10, (E)-3-[1-(4-Dimethylaminomethyl-benzenesulfonyl)-1H-pyrrol-3-yl]-N-hydroxy-acrylamide] | 5.30 to 7.15 |
| – | 219.3 to 221.4 | O=C(/C=C/c1ccn(S(=O)(=O)c2ccc(-c3ccncc3)cc2)c1)NO [Compound 18, (E)-N-Hydroxy-3-[1-(4-pyridin-4-yl-benzenesulfonyl)-1H-pyrrol-3-yl]-acrylamide] | 5.30 to 7.15 |
| – | 203.8 to 211.9 | O=C(/C=C/c1ccn(S(=O)(=O)c2ccc(-c3cn[nH]c3)cc2)c1)NO [Compound 19, (E)-N-Hydroxy-3-{1-[4-(1H-pyrazol-4-yl)-benzenesulfonyl]-1H-pyrrol-3-yl}-acrylamide] | 5.30 to 7.15 |
| – | 244.2 to 246.5 | Nc1ccccc1NC(=O)/C=C/c1ccn(S(=O)(=O)c2ccc(-c3ccncc3)cc2)c1 [Compound 20, (E)-N-(2-Amino-phenyl)-3-[1-(4-pyridin-4-yl-benzenesulfonyl)-1H-pyrrol-3-yl]-acrylamide] | 5.30 to 7.15 |
| – | 114 to 159.4 | O=C(/C=C/c1ccn(S(=O)(=O)c2cccc(-c3ccccc3)c2)c1)NO [Compound 23, (E)-3-[1-(Biphenyl-3-sulfonyl)-1H-pyrrol-3-yl]-N-hydroxy-acrylamide] | 5.30 to 7.15 |
| – | 160.7 to 166.6 | O=C(/C=C/c1ccn(S(=O)(=O)c2ccc(-n3cccn3)cc2)c1)NO [Compound 25, (E)-N-Hydroxy-3-[1-(4-pyrazol-1-yl-benzenesulfonyl)-1H-pyrrol-3-yl]-acrylamide] | 5.30 to 7.15 |
